Patent US20250101129A1, “AFFINITY SUBSTANCE, COMPOUND, AND ANTIBODY AND THEIR SALTS” (Ajinomoto Co., Inc., priority 2022, published 2025)

Test system: CD3-activated human T cells containing PD-1-positive cells
Experiment: Flow cytometry binding to CD3-activated human T cells
Assay type: cell-based
Conditions: primary antibody final concentration 20 g/mL as printed, Alexa Fluor 488 anti-human IgG secondary
Experimental: The cells used were CD3-activated human T cells containing HER2-positive SKBR-3 cells, EGFR-positive A-431 cells, and PD-1-positive cells.
200,000 cells cultured in D-MEM medium (Thermo Fisher Scientific, Inc.) supplemented with 10% FBS (Thermo Fisher Scientific, Inc.) were collected, and 20 μL of PBS containing Human TruStain FcX (Biolegend) was added, followed by blocking of Fc receptors on ice for 10 minutes. The primary antibody reaction was performed by adding the above-described antibodies as primary antibodies to a cell staining buffer (PBS containing 1% FBS) to a final concentration of 20 g/mL, adding 20 μL of the mixtures to the cells, and incubating them for 20 minutes on ice. The cells after the primary antibody reaction were washed twice with the cell staining buffer. The second antibody reaction was performed by adding 40 μL of Goat anti-Human IgG (H+L) Cross-Adsorbed Secondary Antibody, Alexa Fluor™488 (Thermo Fisher Scientific, Inc.) diluted with the cell staining buffer to 10 g/mL as the second antibody to the cells, and incubating the cells on ice for 20 minutes. The cells were washed twice with the cell staining buffer, and then subjected to analysis using Attune NxT Flow Cytometer (Thermo Fisher Scientific, Inc.).

Substance: pembrolizumab
- cells in which fluorescence was observed (positive rate), CD3-activated human T cells: about 23%
